According to PubChem BioAssay AID256 (DTP/NCI, 2004):
Values joined by “and” are separate entries in the source; they are usually repeats but may differ in a detail not shown here. Identical values can stand only once. Inconclusive results and toxic doses are left out.

System: CD2F1 mice, L1210 leukemia ip, survival T/C
Test: NCI In Vivo Anticancer Drug Screen. Data for tumor model L1210 Leukemia (intraperitoneal) in CD2F1 (CDF1) mice
Settings: endpoint: mean survival time, higher = longer survival
How it was run: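 Read-out first: treated-group measurement over vehicle-control measurement, expressed as a ratio. Animals bore a transplanted tumor line and were dosed with compound or vehicle.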

[1] = dose: 25.0 mg/kg/injection, schedule: Q04DX003 (ip), vehicle: saline
[2] = dose: 50.0 mg/kg/injection, schedule: Q01DX009 (ip), vehicle: saline
[3] = dose: 100.0 mg/kg/injection, schedule: Q01DX009 (ip), vehicle: saline
[4] = dose: 100.0 mg/kg/injection, schedule: Q04DX003 (ip), vehicle: saline with Tween-80
[5] = dose: 200.0 mg/kg/injection, schedule: Q04DX003 (ip), vehicle: saline with Tween-80
[6] = dose: 400.0 mg/kg/injection, schedule: Q04DX003 (ip), vehicle: saline with Tween-80
[7] = dose: 100.0 mg/kg/injection, schedule: Q04DX002 (ip), vehicle: saline with Tween-80
[8] = dose: 200.0 mg/kg/injection, schedule: Q04DX002 (ip), vehicle: saline with Tween-80
[9] = dose: 400.0 mg/kg/injection, schedule: Q04DX002 (ip), vehicle: saline with Tween-80
[10] = dose: 100.0 mg/kg/injection, schedule: Q01DX001 (ip), vehicle: saline
[11] = dose: 200.0 mg/kg/injection, schedule: Q01DX001 (ip), vehicle: saline
[12] = dose: 400.0 mg/kg/injection, schedule: Q01DX001 (ip), vehicle: saline
[13] = dose: 50.0 mg/kg/injection, schedule: Q01DX009 (ip), vehicle: saline with Tween-80
[14] = dose: 100.0 mg/kg/injection, schedule: Q01DX009 (ip), vehicle: saline with Tween-80
[15] = dose: 200.0 mg/kg/injection, schedule: Q01DX009 (ip), vehicle: saline with Tween-80
[16] = dose: 25.0 mg/kg/injection, schedule: Q01DX009 (ip), vehicle: saline with Tween-80
[17] = dose: 100.0 mg/kg/injection, schedule: Q04DX003 (ip), vehicle: other
[18] = dose: 200.0 mg/kg/injection, schedule: Q04DX003 (ip), vehicle: other
[19] = dose: 400.0 mg/kg/injection, schedule: Q04DX003 (ip), vehicle: other
[20] = dose: 12.5 mg/kg/injection, schedule: Q01DX009 (ip), vehicle: saline with Tween-80

Structure (SMILES): CC(=O)Nc1ccc2nc3ccc(NC(C)=O)cc3[n+](-c3ccccc3)c2c1
- T/C (dose: 16.0 mg/kg/injection, schedule: Q01DX008 (iv), vehicle: saline): 98 % of control
- T/C (dose: 25.0 mg/kg/injection, schedule: Q03DX003 (ip), vehicle: saline): 118 % of control
- T/C [1]: 123 % of control
- T/C (dose: 32.0 mg/kg/injection, schedule: Q01DX008 (iv), vehicle: saline): 100 % of control
- T/C (dose: 50.0 mg/kg/injection, schedule: Q01DX007 (ip), vehicle: saline): 155 % of control
- T/C [2]: 157 % of control
- T/C (dose: 64.0 mg/kg/injection, schedule: Q01DX008 (iv), vehicle: saline): 115 % of control
- T/C (dose: 100.0 mg/kg/injection, schedule: Q01DX007 (ip), vehicle: saline): 183 % of control
- T/C [3]: 155 % of control

Structure (SMILES): COc1cc(CC#N)ccc1C
- T/C (dose: 12.5 mg/kg/injection, schedule: Q04DX003 (ip), vehicle: acetone): 97 % of control
- T/C (dose: 25.0 mg/kg/injection, schedule: Q04DX003 (ip), vehicle: acetone): 101 % of control
- T/C (dose: 50.0 mg/kg/injection, schedule: Q04DX003 (ip), vehicle: acetone): 102 % of control

Structure (SMILES): COc1cc(C)cc(O)c1C=O
- T/C [4]: 100 % of control
- T/C [5]: 100 % of control
- T/C [6]: 100 % of control

Structure (SMILES): COc1cc(/C=C\[N+](=O)[O-])c([N+](=O)[O-])cc1OCc1ccccc1
- T/C (dose: 100.0 mg/kg/injection, schedule: Q01DX001 (ip), vehicle: saline with Tween-80): 94 % of control
- T/C (dose: 200.0 mg/kg/injection, schedule: Q01DX001 (ip), vehicle: saline with Tween-80): 97 % of control

Structure (SMILES): NC(=S)N/N=C/c1ccc(OC(=O)COc2ccccc2)cn1
- T/C (dose: 88.0 mg/kg/injection, schedule: Q04DX003 (ip), vehicle: saline with Tween-80): 123 % of control
- T/C [7]: 118 % of control
- T/C [8]: 122 % of control
- T/C [5]: 118 % of control
- T/C [9]: 152 % of control and 155 % of control
- T/C (dose: 800.0 mg/kg/injection, schedule: Q04DX002 (ip), vehicle: saline with Tween-80): 174 % of control

Structure (SMILES): O=c1[nH]c2c(c(=O)n1-c1ccccc1)CCCS2
- T/C [10]: 103 % of control
- T/C [11]: 104 % of control
- T/C [12]: 103 % of control

Structure (SMILES): Clc1ccc(N2CSCSC2)cc1
- T/C [13]: 95 % of control
- T/C [14]: 98 % of control
- T/C [15]: 95 % of control

Structure (SMILES): CC(=O)Nc1cccc([N+](=O)[O-])c1
- T/C (dose: 100.0 mg/kg/injection, schedule: Q04DX003 (ip), vehicle: Klucel (hydroxypropylcellulose) (HPC)): 94 % of control
- T/C (dose: 200.0 mg/kg/injection, schedule: Q04DX003 (ip), vehicle: Klucel (hydroxypropylcellulose) (HPC)): 97 % of control

Structure (SMILES): CN1C=NN(C)C=N1
- T/C (dose: 75.0 mg/kg/injection, schedule: Q01DX001 (ip), vehicle: saline): 100 % of control
- T/C (dose: 150.0 mg/kg/injection, schedule: Q01DX001 (ip), vehicle: saline): 97 % of control
- T/C (dose: 300.0 mg/kg/injection, schedule: Q01DX001 (ip), vehicle: saline): 108 % of control

Structure (SMILES): CS(=O)(=O)OC1CCCSc2ccccc21 (centres undefined)
- T/C (dose: 100.0 mg/kg/injection, schedule: Q01DX001 (ip), vehicle: carboxymethylcellulose (CMC)): 103 % of control
- T/C (dose: 200.0 mg/kg/injection, schedule: Q01DX001 (ip), vehicle: carboxymethylcellulose (CMC)): 97 % of control
- T/C (dose: 400.0 mg/kg/injection, schedule: Q01DX001 (ip), vehicle: carboxymethylcellulose (CMC)): 97 % of control

Structure (SMILES): CC(CO)CCC(=O)C(C)C1C2(CC3C4CCC5CC(O)CCC5(C)C4CCC31C)SCCS2 (centres undefined)
- T/C [7]: 86 % of control
- T/C [9]: 92 % of control

Structure (SMILES): Nc1ncnc2nc(CCCCc3ccccc3)[nH]c12
- T/C (dose: 3.0 mg/kg/injection, schedule: Q01DX009 (ip), vehicle: saline with Tween-80): 95 % of control
- T/C (dose: 6.0 mg/kg/injection, schedule: Q01DX009 (ip), vehicle: saline with Tween-80): 106 % of control
- T/C (dose: 12.0 mg/kg/injection, schedule: Q01DX009 (ip), vehicle: saline with Tween-80): 104 % of control

Structure (SMILES): c1ccc(CCC2=Nc3ccccc3CO2)cc1
- T/C [4]: 102 % of control
- T/C [5]: 103 % of control
- T/C [6]: 102 % of control

Structure (SMILES): CC1(C)Oc2ccccc2O1
- T/C [16]: 106 % of control
- T/C [13]: 102 % of control
- T/C [14]: 93 % of control

Structure (SMILES): CC(=O)OC(c1ccccc1)(c1ccccc1)c1ccncc1
- T/C [17]: 93 % of control
- T/C [18]: 89 % of control
- T/C [19]: 93 % of control

Structure (SMILES): C[n+]1cccc(CCc2ccc[n+](C)c2)c1
- T/C [2]: 92 % of control
- T/C [3]: 104 % of control

Structure (SMILES): c1ccc(Cn2cc(CCc3ccncc3)c3ccccc32)cc1
- T/C [13]: 88 % of control
- T/C [14]: 93 % of control
- T/C [4]: 91 % of control
- T/C [5]: 92 % of control

Structure (SMILES): COc1cc(C(=O)C=O)cc(OC)c1OC
- T/C [13]: 103 % of control
- T/C [4]: 109 % of control
- T/C [5]: 110 % of control

Structure (SMILES): CCN=C(N)/N=C(\N)C(Cl)(Cl)Cl
- T/C [10]: 101 % of control
- T/C [11]: 96 % of control
- T/C [12]: 90 % of control

Structure (SMILES): C[Si](C)(C)Oc1cc(N=NNC2=CC(=O)c3ccccc3C2=O)c(O)c2ccccc12
- T/C [20]: 95 % of control
- T/C [16]: 98 % of control
- T/C [13]: 95 % of control

Structure (SMILES): NC1CCCCC1.[O]=[Cr](=[O])([OH])[OH]
- T/C (dose: 6.25 mg/kg/injection, schedule: Q04DX003 (ip), vehicle: saline): 103 % of control
- T/C (dose: 12.5 mg/kg/injection, schedule: Q04DX003 (ip), vehicle: saline): 98 % of control
- T/C [1]: 110 % of control

Structure (SMILES): C#CCOCCC(=O)O
- T/C (dose: 50.0 mg/kg/injection, schedule: Q01DX009 (ip), vehicle: acetone): 102 % of control
- T/C (dose: 100.0 mg/kg/injection, schedule: Q01DX009 (ip), vehicle: acetone): 100 % of control
- T/C (dose: 200.0 mg/kg/injection, schedule: Q01DX009 (ip), vehicle: acetone): 97 % of control

Structure (SMILES): CC(=O)O.CC(=O)O.CC(=O)O.[O]=[U]=[O]
- T/C (dose: 12.5 mg/kg/injection, schedule: Q01DX009 (ip), vehicle: saline): 98 % of control
- T/C (dose: 25.0 mg/kg/injection, schedule: Q01DX009 (ip), vehicle: saline): 98 % of control
- T/C [2]: 90 % of control

Structure (SMILES): CN(c1ccccc1Cl)S(C)(=O)=O
- T/C [4]: 98 % of control
- T/C [5]: 97 % of control
- T/C [6]: 90 % of control

Structure (SMILES): CCCCCCCCCCCCCCCC(=O)N(CCCN(C)C)C1CCC(N(CCCN(C)C)C(=O)CCCCCCCCCCCCCCC)CC1 (centres undefined)
- T/C [20]: 101 % of control
- T/C (dose: 12.5 mg/kg/injection, schedule: Q04DX003 (ip), vehicle: saline with Tween-80): 93 % of control
- T/C (dose: 25.0 mg/kg/injection, schedule: Q04DX003 (ip), vehicle: saline with Tween-80): 111 % of control
- T/C (dose: 50.0 mg/kg/injection, schedule: Q04DX003 (ip), vehicle: saline with Tween-80): 102 % of control

Structure (SMILES): CS(=O)(=O)OCCN(CCOS(C)(=O)=O)c1cccc([N+](=O)[O-])c1
- T/C (dose: 8.0 mg/kg/injection, schedule: Q01DX001 (ip), vehicle: saline): 96 % of control
- T/C (dose: 10.0 mg/kg/injection, schedule: Q01DX010 (ip), vehicle: saline): 113 % of control
- T/C (dose: 16.0 mg/kg/injection, schedule: Q01DX001 (ip), vehicle: saline): 103 % of control
- T/C (dose: 32.0 mg/kg/injection, schedule: Q01DX001 (ip), vehicle: saline): 110 % of control
- T/C (dose: 64.0 mg/kg/injection, schedule: Q01DX001 (ip), vehicle: saline): 114 % of control and 108 % of control
- T/C (dose: 128.0 mg/kg/injection, schedule: Q01DX001 (ip), vehicle: saline): 118 % of control
- T/C (dose: 256.0 mg/kg/injection, schedule: Q01DX001 (ip), vehicle: saline): 119 % of control
- T/C (dose: 300.0 mg/kg/injection, schedule: Q01DX010 (ip), vehicle: saline): 97 % of control

Structure (SMILES): CCCCCCCCCCCCCCCC(=O)Nc1c(C)cc(C)cc1C
- T/C [7]: 103 % of control
- T/C [8]: 111 % of control
- T/C [9]: 91 % of control

Structure (SMILES): O=C1c2cc(Cl)ccc2-c2c(Cl)cc(Cl)cc21
- T/C [13]: 92 % of control
- T/C [14]: 101 % of control
- T/C [15]: 89 % of control

Structure (SMILES): CC(=O)OCCCC(C)Nc1ccnc2cc(Cl)ccc12 (centres undefined)
- T/C [13]: 100 % of control
- T/C [14]: 96 % of control
- T/C [4]: 96 % of control
- T/C [15]: 96 % of control
- T/C [5]: 98 % of control

Structure (SMILES): CCCCCCCC(=O)NC1CCC(C(C)(C)C)CC1 (centres undefined)
- T/C [17]: 93 % of control
- T/C [18]: 94 % of control
- T/C [19]: 89 % of control
